Data as given in patent publication US20110028400A1, “SULFATED UNSATURATED DISACCHARIDIC CHONDROITIN SULFATE IN CONNECTIVE TISSUE PROTECTION AND REPAIR” (NESTEC S.A., priority 2008, published 2011).
Counter-ions that a name gives are not always drawn.

What was measured:
[1] = system: explants of articular cartilage; assay: IL1β-induced GAG (35S) release from cultured bovine articular cartilage explants; assay type: cell-based; settings: for slowing down cytokine-induced cartilage destruction in vitro: comparison among chondroitin disaccharides and higher molecular weight forms
Excerpt: It was investigated here whether normal commercially available chondroitin sulphate and different low molecular weight forms of chondroitin sulphate including disaccharides could inhibit the degradation of aggrecan in cultured explants of articular cartilage. Explants from healthy bovine articular cartilage were put in culture and loaded with S^35. S^35 is incorporated in the glycosaminoglycan chains of the aggrecan molecules of the cartilage and its release in the media is considered as a surrogate marker of glycosaminoglycan release and aggrecan catabolism. However, explants from healthy bovine articular cartilage naturally display a very low catabolic activity which is not ideal to test the anti-catabolic activity of potential bioactives. To improve the sensitivity of the assay, the explants were cultured in presence of IL1β, a pro-inflammatory cytokine, known to act as a potent inducer of MMP and aggrecanase activities. The different low molecular weight forms of chondroitin sulphate were added to the culture media together with IL1β to see whether they can decrease the IL1β-induced aggrecan catabolism. In addition, the effects of the low molecular weight forms of chondroitin sulphate on IL1β-induced NO production were also investigated. Nitric oxide is a reactive oxygen species known to participate in the progression of osteoarthritis.
The articular cartilage explants were dissected out of the metacarpophalangeal joint of old cows (8-10 years). The skin was removed from the feet. The articulation was opened transversally. Intraarticular ligaments were transected. […] Under the hood, similar quantities of cartilage were distributed between the wells of a 24-wells plate containing 500 μl of medium (DMEM+20% FBS, 1% penicillin/streptomycin, 0.1% gentamycin) per well. […]
The following protocol is based on Campbell et al., Arch Biochem Biophys 234(1): 275-289 and Hascall V C et al., Arch Biochem Biophys 224(1): 206-223. […] After 72 hours, several washes were performed to eliminate the non-incorporated radioactivity. The explants were then treated for 72 hours, after which the supernatants were collected and the amount of radioactivity released in the medium was measured with a beta counter, as a marker of GAG catabolism. The radioactivity present in the explants was also measured and used to normalize the amount of radioactivity released into the media. The radioactivity was expressed in DPM ([…] per minute) and the GAG release is assessed by the following formula:
GAG release=radioactivity in the supernatants/(radioactivity in the supernatants+radioactivity in the explants)

knee OA = settings: cited from earlier work
knee synovial fluids = settings: 10 days of 800 mg once a day; cited from earlier work
[2] = system: cartilage damages and proteoglycan loss; settings: 20 mg/kg body weight/day, 11 days before to 21 days after chymopapain injection; cited from earlier work
[3] = system: proteoglycan depletion in cartilage; settings: 100 and 300 mg/kg body weight/day, starting 2 weeks before bradikinin injections; cited from earlier work
[4] = system: explants of articular cartilage; assay: IL1β-induced NO production in cultured bovine articular cartilage explants; assay type: cell-based; settings: 500 μg/ml, with 50 ng/ml IL1β, 72 hours, 4 experiments
Excerpt: It was investigated here whether normal commercially available chondroitin sulphate and different low molecular weight forms of chondroitin sulphate including disaccharides could inhibit the degradation of aggrecan in cultured explants of articular cartilage. Explants from healthy bovine articular cartilage were put in culture and loaded with S^35. S^35 is incorporated in the glycosaminoglycan chains of the aggrecan molecules of the cartilage and its release in the media is considered as a surrogate marker of glycosaminoglycan release and aggrecan catabolism. However, explants from healthy bovine articular cartilage naturally display a very low catabolic activity which is not ideal to test the anti-catabolic activity of potential bioactives. […]
The articular cartilage explants were dissected out of the metacarpophalangeal joint of old cows (8-10 years). […] Under the hood, similar quantities of cartilage were distributed between the wells of a 24-wells plate containing 500 μl of medium (DMEM+20% FBS, 1% penicillin/streptomycin, 0.1% gentamycin) per well. […]
For NO measurements a protocol based on Gilliam et al., Anal Biochem 212(2): 359-365 was used. […] After ten minutes, absorbance was measured at 538 nm. To quantify the amount of NO in the supernatants, a standard curve was prepared using sodium nitrite (0-60 μM).

[5] = rat intestinal loop model, bioavailability; assay type: in vivo

In the case of Chondroitin sulfate [CS], the “slowing down cytokine-induced cartilage destruction in vitro” value [1] is given as “did not have any significant effect”, the “improvement of the Lesquesne index versus diclofenac” value (knee OA; 400 mg of CS 3 times a day, double-blind RCT) is given as “slower than 50 mg of diclofenac” and the “mean and minimum joint space width and joint space surface area on X-rays” value (knee OA; 800 mg CS, one year double-blind placebo-controlled RCT) is given as “decreased significantly in the placebo group but not in the 800 mg CS group”. The joint space narrowing (knee OA; 800 mg once a day, 2-year double-blind RCT, placebo mean joint space loss 0.14 mm) was “prevented joint space narrowing”, the function versus placebo (knee OA; 1000 mg per day, one trial) was “did not improve function better than placebo” and the “osteoarthritic symptoms, meta-analyses” value (knee OA; 3 meta-analyses) was “superior to placebo”. The “spontaneous pain and mobility versus placebo” value (knee OA; 6 of 7 double-blind placebo-controlled RCTs, 3 to 24 months, knee OA) was “more efficient than placebo”, the “pain and mobility, dose comparison” value (knee OA; 800 and 1200 mg once a day) was “more effective on pain and mobility than placebo or 200 mg” and the “mobility, 1200 mg once a day versus 400 mg three times a day” value (knee OA; both superior to placebo) was “No statistical significant difference”. For the same compound, the “time before patients detect a significant difference in pain and mobility” value (knee OA; human, in vivo) was “at least 2 weeks”, the “time required to reach full symptom relief” value (knee OA; human, in vivo) was “up to 2 months” and the “mobility after intermittent treatment” value (knee OA; two 3 month-long periods in a year, 800 mg once a day) was “lasting effects by improving mobility compared to placebo”. The “persistence of effects after termination of treatment” value (knee OA; versus diclofenac) was “persisted longer than diclofenac effects”, the “activities of collagenase, phospholipase A2 and N-acetylglucosaminidase in knee synovial fluids” value (knee synovial fluids) was “decreasing” and the “viscosity and hyaluronate concentration in knee synovial fluids” value (knee synovial fluids) was “significantly increased”. The “cartilage damages and proteoglycan loss” value [2] was “decreased cartilage damages and proteoglycan loss”.
For CC(=O)N[C@H]1C(O)O[C@H](CO)[C@H](OS(=O)(=O)O)[C@@H]1O (stereo partly shown) [GalNac 4S, 4 sulfated N-acetylgalactosamine], the “IL1β-induced GAG release (percentage of radioactivity release)” value ([1]; dose range 500-50-5 μg/ml, with 50 ng/ml IL1β, 72 hours, FIG. 2) was “no effect”.
In the case of chondroitin-6 sulfate, the “proteoglycan depletion in cartilage” value [3] is given as “reduced or prevented”.
For CC(=O)N[C@H]1C(O)O[C@H](CO)[C@H](OS(=O)(=O)O)[C@@H]1O[C@@H]1OC(C(=O)O)=C[C@H](O)[C@H]1O (stereo partly shown) [Δdi4S, 4-sulfated unsaturated disaccharidic chondroitin sulfate], the “amount of GAG released in the supernatants compared to IL1β alone” value ([1]; 500 μg/ml, with 50 ng/ml IL1β, 72 hours, 4 independent experiments) was “significantly (p<0.05) decreased”, the “slowing down cytokine-induced cartilage destruction in vitro” value [1] was “by far the most effective compound” and the “amount of NO in the supernatants compared to IL1β alone” value [4] was “significantly (p<0.05) decreased”. The bioavailability [5] was “more bioavailable than regular high molecular weight chondroitin sulfate”.
